Molecular target: T1, Ceramide glucosyltransferase (Homo sapiens, UniProt Q16739)
T1 sequence (Q16739 whole entry): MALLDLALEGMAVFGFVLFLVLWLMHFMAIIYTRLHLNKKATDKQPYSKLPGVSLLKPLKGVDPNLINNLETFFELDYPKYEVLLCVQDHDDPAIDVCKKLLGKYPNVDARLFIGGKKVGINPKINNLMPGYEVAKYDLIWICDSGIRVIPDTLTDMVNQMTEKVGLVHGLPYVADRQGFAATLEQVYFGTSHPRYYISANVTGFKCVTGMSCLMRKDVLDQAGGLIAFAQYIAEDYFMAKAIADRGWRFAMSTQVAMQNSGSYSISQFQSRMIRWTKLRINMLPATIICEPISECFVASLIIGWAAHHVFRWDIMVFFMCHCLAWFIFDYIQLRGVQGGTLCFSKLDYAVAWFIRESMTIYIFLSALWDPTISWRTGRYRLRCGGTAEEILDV
Assay: UDP-Glo Glucosylceramide Synthase Biochemical Assay
Method: Using Promega's UDP-Glo™ Glycosyltransferase assay kit (Promega Corporation, Madison, WI, USA (Promega)), GCS activity was indirectly measured by detecting the amount of UDP produced. An aliquot of GCS enzyme (1.5 μg crude golgi preparation, total protein) and titrated test compound were aliquoted to each well and incubated for 30 minutes at room temperature. […] An equivalent volume of substrate mixture was then added to each well. Following a 20 h incubation at room temperature to allow for GCS turnover of substrate, an equal volume of UDP detection reagent (Promega) was added to each well and incubated for an additional 75 minutes at room temperature to simultaneously convert the accumulated UDP product into ATP and generate light in a luciferase reaction.

Compound: CN1C(=O)CC(COc2nc(C3CC3)ncc2C#N)C1c1cccc(Cl)c1 (stereo unspecified) [US20250188057, Compound 101]
- IC50: 3.15 µM
